Data taken from patent US20260070887A1 (Shenzhen Zhongge Biological Technology Co., Ltd., priority 2022, published 2026).
Read-outs that look alike come from different tables or passages of the source.

Experiments:
[1] = system: OVCAR-3 cells; assay: OVCAR-3 cell proliferation (Cell Titer-Glo, 10 days); format: cell-based, human
In short: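 IC50 was fitted by nonlinear regression of percent inhibition versus the 0.1% DMSO control. Luminescence was read with Cell Titer-Glo after 10 days of co-culture of logarithmic-phase cells (400/well) with compound at 0.12 nM–10 μM final, in medium with 20% fetal bovine serum and 0.01 mg/mL insulin.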

[2] = target: KIF18A (Homo sapiens (Human), UniProt Q8NI77); assay: KIF18A ATPase activity under tubulin stimulation (ADP-Glo assay); format: biochemical; details: KIF18A 30 nM, ATP 150 μM, pig microtubules
[3] = PK study in ICR mice; format: in vivo, mouse; details: both sexes, mouse, plasma, route and dose not given; for AUC: read-out: AUC; for Cmax: read-out: Cmax
Procedure: 6 ICR mice (male/female) were divided into two groups, administered orally and intravenously, respectively, with 3 mice/group. The mice were fasted for 10-14 hours prior to dosing with free access to water.
The test compound was weighed according to the administration dose, and prepared into a dose formulation at appropriate concentrations (for rats and mice, intravenous and oral administration at a volume of 5 mL/kg and 10 mL/kg, respectively), wherein the intravenous injection was a clear solution, and the oral preparation was a clear solution or a homogeneous suspension.
Animals were dosed by intravenous injection and oral gavage, and blood samples were collected at 0.033, 0.083, 0.25, 0.5, 1, 2, 4, 8, and 24 h after intravenous administration and 0.083, 0.25, 0.5, 1, 2, 4, 6, 8, and 24 h after oral administration. Whole blood was centrifuged at 6800 g for 6 min at 4° C. and the top plasma was stored in a −80° C. freezer for later analysis.
The DMSO stock solution of the test compound was diluted into a series of working solutions with a methanol or an acetonitrile solution, and added to a blank plasma matrix, and standard curves were generated and quality control samples were prepared. An appropriate volume of the plasma sample was taken and a suitable multiple of methanol or acetonitrile containing an internal standard was added for protein precipitation based on the response. After centrifugation of all samples at 18000 g for 10 min at 4° C., an appropriate amount of supernatant was taken for LC-MS/MS injection analysis.
Drug concentration-time curves in plasma were plotted according to test concentrations, and pharmacokinetic parameters were calculated using noncompartmental analysis by WinNonlin software, including: half-life (T½), area under the concentration-time curve from time zero to time t (AUCO-t), clearance (CL), volume of distribution at steady state (Vss) and bioavailability (F), with some of the test results shown in Table 4.

[4] = system: HT-29 cells; assay: HT-29 cell proliferation (Cell Titer-Glo, 6 days); format: cell-based
Procedure: The inhibitory effect on the KIF18A target by the compounds of the present disclosure was evaluated by testing the inhibitory effect on proliferation of HT-29 cells by the compounds of the present disclosure.
HT-29 (ATCC, HTB-38) cells were cultured in McCoy's 5a complete medium (Gibco, 12330-031) containing 10% fetal bovine serum (Gibco, 10099-141C), 100 U penicillin and […] streptomycin (Gibco, 15140-122). The Promega kit Cell Titer-Glo (Promega: G7572) was used in this method for test. • 1. HT-29 cells were cultured in T75 cell flasks (Corning, 430641) and the medium was placed in a 37° C., 5% CO2 incubator. Cells were passaged when reaching a cell density of 70%-80%, approximately twice per week. • 2. To perform the experiment, the test compounds were dissolved in DMSO to prepare a 10 mM stock solution, and the test compounds were added to the 384-well cell test plate (Corning, 3765) at the predetermined concentration using ECHO. • 3. The cell culture flask was taken out, the medium was removed, and the cells were rinsed with PBS. Then 2 mL of trypsin (with 0.25% EDTA) was added, and the flask was placed in the incubator for digestion for 4 minutes. • 4. Digestion was stopped by adding 4 mL of complete medium and the cell suspension was transferred to a centrifuge tube and centrifuged at 1000 rpm for 4 minutes. • 5. The cells were resuspended in 6 mL of complete medium, followed by cell counting. The cell density was adjusted to 4,170 cells/mL, and the cells were added to a 384-well plate at 60 μL/well. • 6. The 384-well plate was centrifuged at 500 rpm for 1 minute, and then placed in a 37° C., 5% CO2 incubator for 6 days of cultivation. • 7. Six days later, the cell culture plate was equilibrated for 10 minutes at room temperature, 25 μL of Cell Titer-Glo was added to each well, and the mixture was shaken and mixed well and let stand for 5 minutes. The luminescence values for samples in various wells were read using a microplate reader in Luminescence mode.
The percentage of inhibition of cell proliferation by the test compound at each concentration was calculated by comparing with the values of the control group (0.3% DMSO). The IC50 values of the compounds were obtained by concentration-inhibition rate nonlinear regression analysis of the test compounds using GraphPad Prism 9.

Chain of KIF18A (Q8NI77 whole entry): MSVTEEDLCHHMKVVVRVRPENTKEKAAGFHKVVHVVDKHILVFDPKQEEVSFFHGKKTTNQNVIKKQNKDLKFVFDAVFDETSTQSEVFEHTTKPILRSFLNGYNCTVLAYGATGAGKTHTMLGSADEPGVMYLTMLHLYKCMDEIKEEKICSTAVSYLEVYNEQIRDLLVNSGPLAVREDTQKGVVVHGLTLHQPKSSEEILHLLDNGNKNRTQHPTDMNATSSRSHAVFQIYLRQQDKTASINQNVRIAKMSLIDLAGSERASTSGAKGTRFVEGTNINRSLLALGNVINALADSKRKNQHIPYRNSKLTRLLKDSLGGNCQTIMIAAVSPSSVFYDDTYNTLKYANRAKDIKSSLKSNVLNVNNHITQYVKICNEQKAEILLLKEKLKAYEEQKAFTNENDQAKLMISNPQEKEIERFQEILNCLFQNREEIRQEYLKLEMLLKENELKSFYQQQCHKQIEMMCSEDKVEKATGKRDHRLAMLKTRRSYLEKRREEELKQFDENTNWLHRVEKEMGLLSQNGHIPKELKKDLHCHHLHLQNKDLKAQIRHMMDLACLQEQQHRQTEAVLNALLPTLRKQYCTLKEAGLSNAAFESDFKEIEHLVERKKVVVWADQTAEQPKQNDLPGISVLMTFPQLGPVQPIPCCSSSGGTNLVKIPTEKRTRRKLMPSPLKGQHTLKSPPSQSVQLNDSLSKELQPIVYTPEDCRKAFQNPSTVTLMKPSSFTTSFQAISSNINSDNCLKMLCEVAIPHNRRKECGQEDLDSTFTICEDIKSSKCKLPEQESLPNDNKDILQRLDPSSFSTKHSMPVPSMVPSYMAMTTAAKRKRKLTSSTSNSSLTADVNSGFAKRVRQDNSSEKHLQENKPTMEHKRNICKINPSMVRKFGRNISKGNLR
Chain of KIF18A (P02550 whole entry partner): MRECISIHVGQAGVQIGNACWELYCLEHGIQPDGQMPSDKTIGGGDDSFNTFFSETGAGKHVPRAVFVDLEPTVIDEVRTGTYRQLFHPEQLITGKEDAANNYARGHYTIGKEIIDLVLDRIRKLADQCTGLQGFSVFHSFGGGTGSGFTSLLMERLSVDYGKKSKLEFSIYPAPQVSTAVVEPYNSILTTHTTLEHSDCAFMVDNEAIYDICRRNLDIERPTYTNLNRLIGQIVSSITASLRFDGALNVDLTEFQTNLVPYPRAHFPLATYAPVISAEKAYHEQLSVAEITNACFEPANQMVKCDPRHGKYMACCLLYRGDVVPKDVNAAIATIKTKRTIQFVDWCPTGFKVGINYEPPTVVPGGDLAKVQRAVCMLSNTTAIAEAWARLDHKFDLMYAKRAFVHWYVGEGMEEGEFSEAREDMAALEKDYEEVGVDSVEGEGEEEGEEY
Chain of KIF18A (P02554 whole entry partner): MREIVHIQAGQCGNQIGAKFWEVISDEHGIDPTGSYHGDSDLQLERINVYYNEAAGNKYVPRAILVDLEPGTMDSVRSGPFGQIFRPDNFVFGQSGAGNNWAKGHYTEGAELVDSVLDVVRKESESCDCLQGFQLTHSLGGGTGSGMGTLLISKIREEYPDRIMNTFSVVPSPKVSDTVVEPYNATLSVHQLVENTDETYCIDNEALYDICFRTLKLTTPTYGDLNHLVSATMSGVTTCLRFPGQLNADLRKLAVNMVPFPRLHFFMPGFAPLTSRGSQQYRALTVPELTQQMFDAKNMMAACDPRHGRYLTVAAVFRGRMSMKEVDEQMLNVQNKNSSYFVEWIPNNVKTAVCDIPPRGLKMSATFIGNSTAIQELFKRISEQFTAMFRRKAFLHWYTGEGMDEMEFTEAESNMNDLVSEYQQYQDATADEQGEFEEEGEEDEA

| Compound | IC50 ([1]; Homo sapiens, OVCAR-3, 240 h) | IC50 [2] | AUC [3] | Cmax [3] | IC50 ([4]; Homo sapiens, HT-29, 144 h) | IC50 [1] | IC50 [4] |
| --- | --- | --- | --- | --- | --- | --- | --- |
| O=C(Nc1cccc2c1cc1n2CCC(F)(F)C1O)c1ccc(NS(=O)(=O)CCO)cc1N1CCC2(CC1)CC2 (single isomer, unassigned) [Compound 384-P1, N-(8,8-difluoro-9-hydroxy-6,7,8,9-tetrahydropyridino[1,2-a]indol-1-yl)-4-((2-hydroxyethyl)sulfonamido)-2-(6-azaspiro[2.5]oct-6-yl)benzamide] | ≤ 50 nM | ≤ 50 nM | 1290 ng·h/mL | 366 ng/mL | ≤ 200 nM |  |  |
| [2H]C([2H])([2H])OC1c2cc3c(NC(=O)c4ccc(NS(=O)(=O)CCO)cc4N4CCC5(CC4)CC5)cccc3n2CCC1(F)F (stereo not drawn) [Compound 385, N-(8,8-difluoro-9-(methoxy-d3)-6,7,8,9-tetrahydropyridino[1,2-a]indol-1-yl)-4-((2-hydroxyethyl)sulfonamido)-2-(6-azaspiro[2.5]oct-6-yl)benzamide] |  | 50 to 500 nM |  |  | ≤ 200 nM | ≤ 50 nM |  |
| [2H]C([2H])([2H])OC1c2cc3c(NC(=O)c4ccc(NS(=O)(=O)CCO)cc4N4CCC(=C(F)F)CC4)cccc3n2CCC1(F)F (stereo not drawn) [Compound 386, N-(8,8-difluoro-9-(methoxy-d3)-6,7,8,9-tetrahydropyridino[1,2-a]indol-1-yl)-2-(4-(difluoromethylene)piperidin-1-yl)-4-((2-hydroxyethyl)sulfonamido)benzamide] |  | 50 to 500 nM |  |  | 200 to 1000 nM | 50 to 500 nM |  |
| CC1(C)OCCn2c1cc1c(NC(=O)c3ccc(NS(=O)(=O)CCO)cc3N3CCC4(CC3)CC4)cccc12 [Compound 396, N-(1,1-dimethyl-3,4-dihydro-1H-[1,4]oxazino[4,3-a]indol-9-yl)-4-((2-hydroxyethyl)sulfonamido)-2-(6-azaspiro[2.5]octan-6-yl)benzamide] | ≤ 50 nM | 50 to 500 nM |  |  | ≤ 200 nM |  |  |
| CC1=CCCn2c1cc1c(NC(=O)c3ccc(NS(=O)(=O)CCO)cc3N3CCC4(CC3)CC4)cccc12 [Compound 410, 4-(2-hydroxyethyl)sulfonamido-N-(9-methyl-6,7-dihydropyridino[1,2-a]indol-1-yl)-2-(6-azaspiro[2.5]octan-6-yl)benzamide] | ≤ 50 nM | 50 to 500 nM | 16400 ng·h/mL | 2790 ng/mL | ≤ 200 nM |  |  |
| O=C(Nc1ccnc2c1cc1n2CCC(F)(F)C1)c1ccc(NS(=O)(=O)CCO)cc1N1CCC(=C(F)F)CC1 [Example 376] |  | ≤ 50 nM |  |  |  | ≤ 50 nM | 200 to 1000 nM |
| O=C(Nc1ccnc2c1cc1n2CCC(F)(F)C1)c1ccc(NS(=O)(=O)CCO)cc1N1CCC2(CC1)CC2 [Example 380, N-(7,7-difluoro-6,7,8,9-tetrahydropyridin[3,2-b]indolizin-4-yl)-4-((2-hydroxyethyl)sulfonamido)-2-(6-azaspiro[2.5]oct-6-yl)benzamide] |  | ≤ 50 nM |  |  |  | ≤ 50 nM | ≤ 200 nM |
| O=C(Nc1cccc2c1cc1n2CC2(CC2)OC1)c1ccc(NS(=O)(=O)CCO)cc1N1CCC(=C(F)F)CC1 [Example 485, 2-(4-(difluoromethylene)piperidin-1-yl)-4-((2-hydroxyethyl)sulfonamido)-N-(1′H,4′H-spiro[cyclopropane-1,3′-[1,4]oxazino[4,3-a]indole]-9′-yl)benzamide] | 50 to 500 nM | ≤ 50 nM | 33300 ng·h/mL | 3740 ng/mL | 200 to 1000 nM |  |  |
